Reference: patent US20230414582A1, “METHODS OF TREATING DISEASES AND DISORDERS” (Curis, Inc., priority 2020, published 2023)
“Also recorded” adds a separate entry of the source.

Experiments:
[1] = system: Waldenstrom's macroglobulinemia (WM); assay: WM patient case on Compound 1 with intra-patient dose escalation: IgM, m-protein, response; type: in vivo, human
Experimental: The patient remained asymptomatic for over 4 years with a slow increase in m-protein and IgM during that time. By mid-2017 they started to experience increased fatigue. […] There was no evidence of CXCR4 genomic alteration. […] Several options were discussed including clinical trials and standard of care Bruton's tyrosine kinase inhibitor (BTKi) therapy.
Baseline testing in December 2018 included a bone marrow biopsy showing 5-10% involvement by WM, m-protein of 1.66 g/dL, IgM 2,801 mg/dL, and a computed tomography scan without pathological lymphadenopathy or hepatosplenomegaly. Quantitative immunoglobulins and serum protein electrophoresis were obtained each cycle to determine response to treatment (FIG. 1).
The patient initiated treatment at the first dose level, 50 mg. […] Using a standard 3+3 design the subsequent dose level, 100 mg po BID, was cleared per protocol. Considering evidence of response without noted toxicity, the patient was a candidate to escalate to 100 mg po BID starting with cycle 7 day 1 in April 2019. […] They reported a significant improvement in their quality of life with resolution of fatigue and returned to a rigorous daily exercise program that they had been unable to perform for the last 2 years due to WM-related symptoms. […]

[2] = system: NF-kB p-p50 S337 in TF-1 cells; assay: Western blot of NF-kB p-p50 S337 in TF-1 (AML) cells; type: cell-based; details: TF-1 cells (AML cells, FIG. 13B), 3 μM and 10 μM, 48 h, vs DMSO
Experimental: (§1) At 48 h post-treatment, cell lysates were obtained. Protein sample concentration was quantified and equal amount 20 μg of whole protein extract was loaded in each well of SDS-polyacrylamide gel. Cell extracts were separated by 10% SDS-PAGE, transferred to nitrocellulose membrane, and probed as indicated. The following antibodies were used for immunoblot analysis: NF-kB p-p50 S337 (Santa Cruz Biotechnology) and b-actin (Cell Signaling Technology).

[3] = Phase 1 study of Compound 1 in AML or high risk MDS (NCT04278768): safety; type: in vivo; details: Cohort 1, 200 mg BID
Experimental: (§2) This study will be conducted in 2 parts: an initial dose escalation and dose expansion phase. […] Three patients with AML or MDS will be enrolled at the designated dose. If none of the first 3 patients experience a DLT during the first cycle, patients may be enrolled into the next higher dose level of 300 mg bid until a safe and effective RP2D is established.
(§3) This study is expected to enroll approximately 18 patients to establish the initial RP2D.
(§4) The major study inclusion and exclusion criteria are as follows: Relapsed or refractory AML (primary or secondary, including treatment-related) after at least one standard treatment (including chemotherapy, re-induction therapy or stem cell transplantation) based on the assessment of the investigator or high/very high risk relapsed/refractory MDS (IPSS-R criteria), following at least 6 cycles of hypomethylating agents [HMA] or evidence of early progression.

AML or high risk MDS = assay: Phase 1 study of Compound 1 in AML or high risk MDS (NCT04278768): marrow response; type: in vivo, human; details: initial patients, 200 or 300 mg BID
Experimental: as §2, §3, §4

[4] = Oral pharmacokinetics of Compound 1 in humans (FIG. 7); type: in vivo, human
From the text: In summary, the oral pharmacokinetics of Compound 1 are desirable.

[5] = Phase I dose escalation trial of Compound 1 in NHL (NCT03328078): safety and tolerance; type: in vivo, human
Experimental: (§5) Seven dosing cohorts included 50 and 100 mg QD, and 50, 100, 200, 300, or 400 mg BID of daily continuous oral monotherapy in 21-Day cycles. Objective included safety and tolerance (primary), pk/pd and early efficacy (secondary), and biomarker correlations (exploratory). 31 patients with resistant or refractory, advanced NHL have been enrolled.

NF-κB p-p50 = assay: Immunohistochemistry of NF-κB p-p50 in tumor biopsies of NHL patients treated with Compound 1; type: in vivo, human; details: paired biopsies before and after/during treatment with Compound 1 (3 cases)
Experimental: Formalin-fixed, paraffin-embedded sections of human tonsil and lymphoma were used. Tissue sections (5 μm) were deparaffinized, and antigen retrieval was carried out at 90-100° C. in citrate buffer for 10-40 min. The sections were incubated in 1% […] for 10 minutes to quench endogenous tissue peroxidase. Tissue sections were then incubated with primary NF-κB p-p50-specific antibody for 1 hour at room temperature. The primary NF-κB p-p50-specific antibody used NF-κB p-p50 (S337), sc-271908 from Santa Cruz Biotechnology. The slides were stained using a standard EnVision+System-HRP kit (DAKO, Carpinteria, CA) according to the manufacture's protocol. Immunohistochemical reactions were developed with diaminobenzidine as the chromogenic peroxidase substrate, and slides were counterstained with hematoxylin. Negative control samples included replacement of the primary antibody with nonimmune IgG1 (Dako).
Specifically, nuclear and/or cytoplasmic expression of NF-kappaB p-p50 was found in all 6 SD cases treated with 50 mg QD (2 cases, tumor regression), 50 mg BID (1 case), 200 BID (1 case, tumor regression) and 400 BID (2 cases). Expression of NF-kappaB p-p50 was not detected in 7 of 8 cases with PD including patients treated with 50 mg QD (1 case), 100 mg QD (1 case), 100 mg BID (3 cases), 200 mg BID (1 case) and 400 BID (1 case). […]

[6] = system: resistant or refractory, advanced NHL; assay: Phase I dose escalation trial of Compound 1 in NHL (NCT03328078): tumor response; type: in vivo, human; details: patient with DLBCL-GCB; initial dose 200 mg bid, final dose 300 mg bid
Experimental: as §5

[7] = system: NF-kB p-p50 S337 in OCL-LY10 cells; assay: Western blot of NF-kB p-p50 S337 in OCL-LY10 cells; type: cell-based; details: 3 μM and 10 μM, 48 h, vs DMSO
Experimental: as §1

[8] = system: Waldenstrom's macroglobulinemia (WM); assay: Prior therapies of the WM patient (case history); type: in vivo, human

Cc1cc(-c2nc(C(=O)Nc3cc4oc(N5CCOCC5)nc4nc3N3CC[C@@H](O)C3)co2)ccn1 [Compound 1]
fatigue ([1]; 200 mg po BID, by the summer of 2019): completely resolved
response ([1]; cycles 7 and 8, 100 mg po BID): stable disease
expression of NF-kB p-p50 S337 (Western blot) [2]: downregulated
DLT 1st cycle ([3]; 3 patients with hr-MDS): No DLT
dose reductions for Gr. 3 dizziness ([3]; C2): 1
marrow response (AML or high risk MDS): several marrow complete responses
half-life ([4]; human, plasma, oral administration): ~6 h
accumulation at steady state ([4]; multiple daily twice dose administration): Moderate accumulation
time of maximum plasma concentrations post dose ([4]; oral administration): 0.5 to 8 h
Anemia, All Grades, [E] ([5]; 200 mg BID, N = 5): [1]
Neutropenia, All Grades, [E] ([5]; 200 mg BID, N = 5): [3]
Neutropenia, Grade 3 or Higher, [E] ([5]; 200 mg BID, N = 5): [2]
Anemia, All Grades, [E] ([5]; 300 mg BID, N = 6): [3]
Neutropenia, All Grades, [E] ([5]; 300 mg BID, N = 6): [5]
Neutropenia, Grade 3 or Higher, [E] ([5]; 300 mg BID, N = 6): [1]
Anemia, All Grades, [E] ([5]; 400 mg BID, N = 8): [1]
Anemia, Grade 3 or Higher, [E] ([5]; 400 mg BID, N = 8): [1]
Neutropenia, All Grades, [E] ([5]; 400 mg BID, N = 8): [3]
Thrombocytopenia, All Grades, [E] ([5]; 400 mg BID, N = 8): [2]
Thrombocytopenia, Grade 3 or Higher, [E] ([5]; 400 mg BID, N = 8): [2]
tolerability overall ([5]; 31 NHL patients, 50 mg QD to 400 mg BID): well tolerated; also recorded: good safety and tolerance
creatine phosphokinase (CPK/CK) elevation ([5]; WM patient, 200 mg po BID, asymptomatic, resolved with exercise moderation): grade 2
tolerability ([5]; WM patient, first dose level, 50 mg): tolerated therapy well without adverse events
NF-κB phospho-p50 expression in tumor biopsies (NF-κB p-p50): significant downregulation; also recorded: inhibited
Tumor Reduction [6]: 35%
expression of NF-kB p-p50 S337 (Western blot) [7]: downregulated

rituximab
response ([8]; induction 375 mg/m^2 IV weekly for 8 weeks then maintenance, 2005-2007): very good partial remission
IgM ([8]; retreatment 2011, numeric increase from 1476): 2042 mg/dL
response ([8]; retreatment June-September 2011): stable disease
